Experimental data reported in patent publication US7947696B2, “2-amino-4-phenylquinazoline derivatives and the use thereof as HSP90 modulators” (Merck Patent GmbH, priority 2005, dated 2011).
Structures can show the parent of a compound that is named as a salt.

Target: T1, Recombinant human HSP90α (Homo sapiens, UniProt P07900)
T1 construct: host or cells: E. coli
Assay: radioligand filter binding test, competition with [3H]17AAG for HSP90
Conditions: [3H]17AAG 0.08 μM, HSP90 1.5 μg/assay, 22° C., 30 min, pH 7.0
Excerpt: The binding of geldanamycin or 17-allylamino-17-demethoxygeldanamycin (17AAG) to HSP90 and competitive inhibition thereof can be utilised in order to determine the inhibitory activity of the compounds according to the invention (Carreras et al. 2003, Chiosis et al. 2002).
In the specific case, a radioligand filter binding test is used. The radioligand used here is tritium-labelled 17-allylaminogeldanamycin, [3H]17AAG. This filter binding test allows a targeted search for inhibitors which interfere with the ATP binding site.
Recombinant human HSP90α(E. coli expressed, 95% purity); [3H]17AAG (17-allylaminogeldanamycin, [allylamino-2,3-^3H. Specific activity: 1.11×10^12 Bq/mmol (Moravek, MT-1717); HEPES filter buffer (50 mM HEPES, pH 7.0, 5 mM MgCl2, BSA 0.01%) Multiscreen FB (1 μm) filter plate (Millipore, MAFBNOB 50).
The 96-well microtitre filter plates are firstly irrigated and coated with 0.1% of polyethylenimine.
The test is carried out under the following conditions: • Reaction temperature 22° C. • Reaction time: 30 min., shaking at 800 rpm • Test volume: 50 μl • Final concentrations: • 50 mM HEPES HCl, pH 7.0, 5 mM MgCl2, 0.01% (w/v) BSA • HSP90:1.5 μg/assay • [3H]17AAG: 0.08 μM.
At the end of the reaction, the supernatant in the filter plate is removed by suction with the aid of a vacuum manifold (Multiscreen Separation System, Millipore), and the filter is washed twice.
The filter plates are then measured in a beta counter (Microbeta, Wallac) with scintillator (Microscint 20, Packard).
“% of control” is determined from the “counts per minutes” values and the IC-50 value of a compound is calculated therefrom.

SMILES | IC50 [nM]
COc1ccc(-c2nc(N)nc3ccc(Cl)cc23)cc1OCc1cccc(C(=O)O)c1 [Compound A112, 2-amino-6-chloro-4-[3-(3-carboxybenzyloxy)-4-methoxyphenyl]quinazoline sodium salt] | 470
COc1ccc(-c2nc(N)nc3ccc(Cl)cc23)cc1OCc1ccc(C(=O)O)cc1 [Compound A113, 2-amino-6-chloro-4-[3-(4-carboxybenzyloxy)-4-methoxyphenyl]quinazoline sodium salt] | 370
COC(=O)c1cccc(COc2cc(-c3nc(N)nc4ccc(Cl)cc34)ccc2OC)c1 [Compound A108, 2-amino-6-chloro-4-[3-(3-methoxycarbonylbenzyloxy)-4-methoxyphenyl]quinazoline] | 950
COC(=O)c1ccc(COc2cc(-c3nc(N)nc4ccc(Cl)cc34)ccc2OC)cc1 [Compound A109, 2-amino-6-chloro-4-[3-(4-methoxycarbonylbenzyloxy)-4-methoxyphenyl]quinazoline] | 800
COc1ccc(-c2nc(N)nc3ccc(Cl)cc23)cc1OCCCC(=O)O [Compound A111, 2-amino-6-chloro-4-[3-(3-carboxypropoxy)-4-methoxyphenyl]quinazoline sodium salt] | 580

Other lines, results leading:

IC50 [nM] | SMILES
550 | COc1ccc(-c2nc(N)nc3ccc(Cl)cc23)cc1OC [Compound A134, 2-amino-6-chloro-4-(3,4-dimethoxyphenyl)quinazoline]
540 | COc1ccc(-c2nc(N)nc3ccc(Cl)cc23)cc1OCc1ccc(-c2nnn[nH]2)cc1 [Compound A138, 2-amino-6-chloro-4-{3-[4-(1H-tetrazol-5-yl)benzyloxy]-4-methoxyphenyl}quinazoline]
